Test results published in paper PMC6591174, “The beneficial androgenic action of steroidal aromatase inactivators in estrogen-dependent breast cancer after failure of nonsteroidal drugs” (Cell Death & Disease, 2019).
pIC50: −log10 of the molar value. “Also recorded” adds a separate entry of the source.

Assays:
[1] = system: prostate (P), seminal vesicle (SV), levator ani muscle (LA); test: Hershberger assay in orchiectomized rats; assay type: in vivo, Wistar male rats; conditions: for androgenic effect (P and SVs): 10 mg/kg s.c. once a day
Method: Fig. 5 Estimation of the androgenic and myotrophic activities of the indicated compounds obtained by the Hershberger Assay. Wistar male rats were orchiectomized (orchi) or sham-operated (intact) under ether anesthesia. After 14 days of endogenous hormonal decline, animals were randomly allocated to treatment and vehicle groups (n = 6). The numbers at the end of the abbreviations correspond to the dose in mg/kg body weight of the animal. Flutamide was given by gavage (10 mg/kg/day). […] Then the animals were treated once a day. The rats were sacrificed after completion of the 12-day treatment. Following removal, wet weights of the prostate (P), seminal vesicle (SV), levator ani muscle (LA) were determined. a Size and shape of P, SV and LA at the end of the treatment period. b, c, and d, influence of treatment with the compounds alone or together with the antiandrogen flutamide at the indicated doses on the weight of the organs (P, SV and LA) of the castrated animals. The mean wet weight is represented by the bars in the graphs. Values are means ± SEM; bars, SEM. *P ≤ 0.05, **P ≤ 0.01 vs. control
The Hershberger assay was performed according to the guidelines of the rodent Hershberger assay. Male Wistar rats (140 g, 5–6 weeks) were orchiectomized (orchi) or sham-operated (intact) under ether anesthesia. After 14 days of endogenous hormonal decline, animals were randomly allocated to treatment and vehicle groups (n = 6); orchi group = orchi rats receiving sham injections; intact group = sham-operated rats receiving sham injections; treatment group = orchi rats receiving drugs injections by subcutaneous. The antiandrogen flutamide given by gavage (10 mg/kg/day). Drugs were dissolved in ethanol and diluted in corn oil. The animals were treated once a day. Rats were sacrificed after completion of the 12-day treatment. Following removal, the wet weights of the P, SV, and LA muscle were determined. The data of tissue weights are presented as mean ± SEM.

MCF-7 cells [2] = test: Cell proliferation assay (CCK8), MCF-7; assay type: cell-based, human; conditions: for proliferation of MCF-7 cells: 1 nM-10 μM, 6 days, 10% PRF-CT with 1 nM E2
Method: (§1) Fig. 2 Proliferative response of cancer cells to indicated compounds. a–c the effect of concentrations of different compounds on the growth of the cells. […] Cell growth was measured as described in the “Materials and methods”. The proliferation of cells is expressed as the ratio of the cells compared with the control wells (untreated cells). d, e Influence of different compounds on the cell cycle of MCF-7 cells. MCF-7 cells were cultured in 10% PRF-CT with E2 (1 nM) for 3 days before plating. Cells were seeded in six-well plates and, the next day, starved in PRF for 24 h. Cells were exposed to different compounds at a concentration of 100 nM for 72 h, and then subjected to cell-cycle analysis as described in “Materials and methods”. f MCF-7 cells on poly-L-lysine-coated glass coverslips were exposed to compounds (100 nM) in 10% PRF-CT with 1 nM E2 for 72 h. Control cells were treated with vehicle. DAPI stains DNA, and the secondary anti-mouse antibody to detect the antibody bound to Ki-67 is labeled with the cyanine dye Cy3. The cells were stained with DAPI (blue). Immunofluorescence staining of Ki-67 of cells was observed using fluorescence microscope. Red: Ki-67; blue: nucleus.Typical image is shown. Scale bars: 10 μm. Data represent a mean ± SEM of three independent experiments, each in triplicate; bars, SEM. *P ≤ 0.05 vs. control
(§2) After 24 h, cells were exposed for 3–6 days to various concentrations of compounds (1 nM– 10 μM) or left untreated. The incubation time and the compounds concentrations were chosen based on previous studies[17],[32]–[34]. The effects of the various drugs on cell proliferation at the indicated concentrations (1 nM– 10 μM) were determined by using a CCK8 kit (Dojindo Laboratories, Kumamoto, Japan) according to the manufacturer’s protocol. The absorbance at 450 nm was measured by using a Versamax microplate reader (Thermo Varioskan Flash, USA). Cell growth is expressed as the ratio of the cells compared with the control wells (untreated cells).

ZR-75-1 cells = test: Cell proliferation assay (CCK8), ZR-75-1; assay type: cell-based, human; conditions: for proliferation of ZR-75-1 cells: 1 nM-10 μM, 6 days, 10% PRF-CT with 1 nM E2
Method: as §1, §2

[3] = system: AR protein in MCF-7 cells; test: AR protein expression by western blot and immunofluorescence; assay type: cell-based, human; conditions: incubation 3 days
Method: Fig. 3 Influence of indicated compounds on the expression of the AR. […] AR protein expression was analyzed by western blot as described in “Materials and methods”. b The densitometric evaluation of the bands is calculated by ImageJ. The numbers represent the densitometric value relative to untreated control. […] Typical image is shown. Scale bars: 10 μm
Total cell proteins were obtained from 70% confluent cell cultures. Protein extracts of whole cells (50 μg) were denatured, separated by SDS–PAGE and transferred to polyvinylidene fluoride membranes. After blocking with 3% bovine serum albumin in Tris-buffered saline-Tween, membranes were probed overnight at 4 °C. […] After incubation with the appropriate secondary antibody, results were detected using ECL detection reagents. Immunoreactive bands were quantified by densitometry using ImageJ software.
MCF-7 cells were seeded on 24-well plates (2 × 10^4 cells/well) with a poly-L-lysine-coated glass coverslip per well in 10% PRF–CT. […] Cells were visualized with a ×40 objective and a Qimaging digital camera coupled to an Olympus X71 fluorescence microscope using a red fluorescent protein filter.

androgenic organs = system: androgenic organs; design: method as in PMID 404132; conditions: doses of 3 and 10 mg/kg; cited from earlier work
MCF-7 cells [4] = test: Cell cycle analysis by flow cytometry; assay type: cell-based, human; conditions: 100 nM, 72 h
Method: Fig. 2 Proliferative response of cancer cells to indicated compounds. a–c the effect of concentrations of different compounds on the growth of the cells. Cells were cultured in 10% PRF-CT with E2 1 nM (MCF-7 and ZR-75-1) or without E2 (MDA-MB-231) for 3 days before plating. Cells were seeded in 96-well plates and 24 h later they were exposed to different concentrations (1 nM– 10 μM) of compounds for 6 days (MCF-7 and ZR-75-1) or 3 days (MDA-MB-231). Cell growth was measured as described in the “Materials and methods”. The proliferation of cells is expressed as the ratio of the cells compared with the control wells (untreated cells). d, e Influence of different compounds on the cell cycle of MCF-7 cells. MCF-7 cells were cultured in 10% PRF-CT with E2 (1 nM) for 3 days before plating. Cells were seeded in six-well plates and, the next day, starved in PRF for 24 h. Cells were exposed to different compounds at a concentration of 100 nM for 72 h, and then subjected to cell-cycle analysis as described in “Materials and methods”. f MCF-7 cells on poly-L-lysine-coated glass coverslips were exposed to compounds (100 nM) in 10% PRF-CT with 1 nM E2 for 72 h. Control cells were treated with vehicle. DAPI stains DNA, and the secondary anti-mouse antibody to detect the antibody bound to Ki-67 is labeled with the cyanine dye Cy3. The cells were stained with DAPI (blue). Immunofluorescence staining of Ki-67 of cells was observed using fluorescence microscope. Red: Ki-67; blue: nucleus.Typical image is shown. Scale bars: 10 μm. Data represent a mean ± SEM of three independent experiments, each in triplicate; bars, SEM. *P ≤ 0.05 vs. control
Cell cycle kinetics were studied by flow cytometry. MCF-7 cells were cultured in 10% PRF–CT with 1 nM E2 for 3 days prior to seeding on six-well plates (10^5 cells/well). Following seeding of cells, cells were serum starved for 24 h, and then treated with media containing 100 nM of the test compounds for 72 h. Cell-cycle analysis was performed as described by Ando[20].

[5] = system: ER(+) breast cancer (luminal A tumors); design: method as in printed; conditions: daily topical application to the affected breast, within 40 days; earlier work of the authors, ref not given; cited from earlier work
[6] = target: T1, Rat AR ligand-binding domains (His-GST-ARLBD) (Rattus norvegicus, UniProt P15207); test: AR fluorescence polarization-based competitive hormone-binding assay (PolarScreen AR Competitor Assay, Red)
T1 construct: purchased Invitrogen
T1 sequence (P15207 651-882 limits assumed): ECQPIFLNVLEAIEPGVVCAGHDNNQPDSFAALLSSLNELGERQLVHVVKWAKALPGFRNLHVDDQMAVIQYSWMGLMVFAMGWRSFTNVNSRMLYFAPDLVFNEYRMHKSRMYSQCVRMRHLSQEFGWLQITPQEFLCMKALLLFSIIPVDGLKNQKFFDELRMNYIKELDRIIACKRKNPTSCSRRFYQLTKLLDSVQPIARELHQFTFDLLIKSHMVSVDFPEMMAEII
Description: Fig. 4 The affinity of indicated compounds to the AR and their regulation of AR transcriptional activity. a AR fluorescence polarization-based competitive hormone-binding assays. […] Curve fitting was done using GraphPad Prism software (version 7.00). […] ARE(3×)-regulated dual-luciferase activity in U2-OS cells under steroid-free conditions. Cells were transiently transfected with pcDNA3.1-AR and ARE3-luc2P (firefly luciferase reporter plasmids) and the internal normalization control pRL-TK (Renilla luciferase reporter plasmid). Six hours after transfection, cells were treated as indicated. Then they were assayed 48 h after transfection for dual-luciferase activity. […] Briefly, compounds were dissolved in DMSO and mixed at 2% (vol/vol) with AR Red Screening Buffer. The tested compounds were subsequently serially diluted in two-fold increments with AR Red Screening Buffer and mixed 1:1 (vol/vol) with a 2 × AR/Fluormone AL complex. Competition for binding AR between Fluormone AL and the tested compounds was allowed to come to equilibrium for 4 h and not more than 20 h at room temperature in the dark. Fluorescence polarization value (mP) was measured on a fluorescence polarization plate reader (Biotech cytation5). Each compound dose was performed in triplicate, relative error was calculated from the standard error of the mean (SEM), and curve fitting was performed using GraphPad Prism™ 7.0 software.

[7] = 100 nM compound with 100 nM OH-Flutamide

CC(C)C(=O)Nc1ccc([N+](=O)[O-])c(C(F)(F)F)c1 [Flutamide, flutamide]
prevention of androgenic effects of the test compounds ([1]; Flutamide by gavage 10 mg/kg/day, concomitant): All androgenic effects can be eliminated

C=C1C[C@@H]2[C@H](CC[C@]3(C)C(=O)CC[C@@H]23)[C@@]2(C)C=CC(=O)C=C12 [Exemestane]
proliferation of MCF-7 cells (MCF-7 cells [2]): less effective | proliferation of ZR-75-1 cells (ZR-75-1 cells): less effective | expression of the AR protein [3]: considerably more effective than Formestane | androgenic effect (P and SVs) ([1]; 12 days, castrated rats): slightly androgenic; also recorded: the same effect | androgenic activity (androgenic organs): slight androgenic activity

C[C@]12CCC(=O)C(O)=C1CC[C@@H]1[C@@H]2CC[C@]2(C)C(=O)CC[C@@H]12 [4-OHA, 4-hydroxyandrostenedione]
proliferation of MCF-7 cells (MCF-7 cells [2]): some antiproliferative action | proliferation of ZR-75-1 cells (ZR-75-1 cells): no effect on the growth | influence on the cell cycle (G1/G0 increase, S-phase decrease) (MCF-7 cells [4]): apparently more effective than Exemestane and 17-HEXE | androgenic effect (P and SVs) ([1]; 12 days, castrated rats): no effect on P and SVs | androgenic effect (P and SVs) ([1]; 12 days, castrated rats, listed as Formestane): no effect on androgenic organs whatsoever | reduction of tumor size (regression) [5]: more than 50%

C[C@@H]1CC2=CC(=O)CC[C@@H]2[C@H]2CC[C@@]3(C)[C@@H](CC[C@]3(C)O)[C@@H]21 [Mibolerone]
pIC50 [6]: 7.93 | proliferation of MCF-7 cells (MCF-7 cells [2]): antiproliferative in two ER(+)/AR(+) cell lines at all concentrations | proliferation of ZR-75-1 cells (ZR-75-1 cells): antiproliferative in two ER(+)/AR(+) cell lines at all concentrations | effect on P, SVs and LA compared with DHT ([1]; 0.5 mg/kg s.c. once a day, 12 days, castrated rats): more effective than DHT

CC(C)(O)C(=O)Nc1ccc([N+](=O)[O-])c(C(F)(F)F)c1 [OH-Flutamide, hydroxyflutamide]
antiproliferative effect in presence of OH-Flutamide, MCF-7 (MCF-7 cells [2]; [7]): the antiproliferative effect of DHT is almost completely abolished | antiproliferative effect in presence of OH-Flutamide, ZR-75-1 (ZR-75-1 cells; [7]): the antiproliferative effect of DHT is almost completely abolished
